# Reference: patent publication US10168342B2, “Lipid probes and uses thereof” (THE SCRIPPS RESEARCH INSTITUTE, priority 2015, dated 2019)
# Like-named read-outs stand apart in the source and are kept apart here.
# Assays:
# [1] = biological target: AEA-DA lipid probe targets in Neuro2a cells (Mus musculus, UniProt Q9CYN2)
# [2] = biological target: AEA-DA lipid probe targets in Neuro2a cells (Mus musculus, UniProt Q6PA06)
# [3] = biological target: T1, AEA-DA lipid probe targets in Neuro2a cells (Mus musculus, UniProt Q61207); settings: for SILAC ratio, PSAP (P07602): Neuro2a cells, AEA-DA probe
# T1 sequence (Q61207 60-557): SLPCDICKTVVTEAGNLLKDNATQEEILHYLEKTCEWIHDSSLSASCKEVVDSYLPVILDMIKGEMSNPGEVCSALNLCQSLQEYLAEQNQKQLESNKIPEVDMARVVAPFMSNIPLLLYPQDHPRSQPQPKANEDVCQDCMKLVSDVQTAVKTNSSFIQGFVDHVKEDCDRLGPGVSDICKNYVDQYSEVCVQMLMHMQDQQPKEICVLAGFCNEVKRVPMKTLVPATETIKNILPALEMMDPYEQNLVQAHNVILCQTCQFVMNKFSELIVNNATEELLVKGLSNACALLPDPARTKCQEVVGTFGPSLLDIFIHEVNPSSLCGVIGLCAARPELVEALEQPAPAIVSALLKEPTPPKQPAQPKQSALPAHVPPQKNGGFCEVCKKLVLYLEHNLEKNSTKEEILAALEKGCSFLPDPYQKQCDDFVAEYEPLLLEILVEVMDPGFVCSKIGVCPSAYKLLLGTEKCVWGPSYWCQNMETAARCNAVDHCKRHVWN
# [4] = biological target: T2, AEA-DA lipid probe targets in Neuro2a cells (Mus musculus, UniProt O08547)
# T2 sequence (O08547 1-215): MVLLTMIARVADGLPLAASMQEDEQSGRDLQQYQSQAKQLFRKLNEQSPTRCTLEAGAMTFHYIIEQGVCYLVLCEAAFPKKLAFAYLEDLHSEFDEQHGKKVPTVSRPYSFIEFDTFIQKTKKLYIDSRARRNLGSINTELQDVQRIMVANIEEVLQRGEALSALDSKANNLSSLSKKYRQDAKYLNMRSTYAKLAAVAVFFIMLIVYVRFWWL
# [5] = biological target: AEA-DA lipid probe targets in Neuro2a cells (Mus musculus, UniProt Q8VDD5)
# [6] = biological target: AEA-DA lipid probe targets in Neuro2a cells (Mus musculus, UniProt Q9Z2I0)
# [7] = biological target: T3, AEA-DA lipid probe targets in Neuro2a cells (Mus musculus, UniProt P17439)
# T3 sequence (P17439 20-515): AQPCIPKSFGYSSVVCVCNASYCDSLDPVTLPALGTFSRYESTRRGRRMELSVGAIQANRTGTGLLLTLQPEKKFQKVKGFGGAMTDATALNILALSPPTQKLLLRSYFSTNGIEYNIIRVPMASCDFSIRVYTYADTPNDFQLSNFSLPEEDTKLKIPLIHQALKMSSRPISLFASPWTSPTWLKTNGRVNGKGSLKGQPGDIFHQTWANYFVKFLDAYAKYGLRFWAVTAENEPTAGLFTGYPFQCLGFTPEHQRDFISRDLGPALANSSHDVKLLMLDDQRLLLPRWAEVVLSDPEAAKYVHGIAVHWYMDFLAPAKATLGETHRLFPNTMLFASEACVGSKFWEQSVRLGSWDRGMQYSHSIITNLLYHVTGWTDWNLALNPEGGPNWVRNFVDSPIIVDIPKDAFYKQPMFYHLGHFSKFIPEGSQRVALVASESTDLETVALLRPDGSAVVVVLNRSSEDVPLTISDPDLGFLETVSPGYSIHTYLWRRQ
# [8] = biological target: T4, AEA-DA lipid probe targets in Neuro2a cells (Mus musculus, UniProt P15626)
# T4 sequence (P15626 1-218): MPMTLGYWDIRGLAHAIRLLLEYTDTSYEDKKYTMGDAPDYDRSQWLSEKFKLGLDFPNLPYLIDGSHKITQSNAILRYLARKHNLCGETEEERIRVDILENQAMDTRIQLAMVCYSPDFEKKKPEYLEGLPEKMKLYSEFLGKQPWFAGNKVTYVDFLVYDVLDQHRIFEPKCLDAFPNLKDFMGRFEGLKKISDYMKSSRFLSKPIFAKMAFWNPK
# [9] = biological target: T5, AEA-DA lipid probe targets in Neuro2a cells (Mus musculus, UniProt Q8CHK3)
# T5 sequence (Q8CHK3 1-473): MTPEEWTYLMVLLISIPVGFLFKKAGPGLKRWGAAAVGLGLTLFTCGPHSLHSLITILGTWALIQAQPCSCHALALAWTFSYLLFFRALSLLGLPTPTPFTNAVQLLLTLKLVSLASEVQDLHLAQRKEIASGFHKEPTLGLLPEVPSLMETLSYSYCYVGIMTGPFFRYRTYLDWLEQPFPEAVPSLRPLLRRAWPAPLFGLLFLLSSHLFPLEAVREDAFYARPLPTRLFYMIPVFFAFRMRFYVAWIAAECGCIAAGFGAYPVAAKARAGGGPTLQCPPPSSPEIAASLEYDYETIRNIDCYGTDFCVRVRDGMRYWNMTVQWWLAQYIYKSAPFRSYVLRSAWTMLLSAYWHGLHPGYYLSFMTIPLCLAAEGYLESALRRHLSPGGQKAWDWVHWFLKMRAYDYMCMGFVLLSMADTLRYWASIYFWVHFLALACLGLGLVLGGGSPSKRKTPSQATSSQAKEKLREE
# AEA-DA lipid probe targets in Neuro2a cells (Mus musculus, UniProt Q9CYN2), sequence (Q9CYN2 whole entry): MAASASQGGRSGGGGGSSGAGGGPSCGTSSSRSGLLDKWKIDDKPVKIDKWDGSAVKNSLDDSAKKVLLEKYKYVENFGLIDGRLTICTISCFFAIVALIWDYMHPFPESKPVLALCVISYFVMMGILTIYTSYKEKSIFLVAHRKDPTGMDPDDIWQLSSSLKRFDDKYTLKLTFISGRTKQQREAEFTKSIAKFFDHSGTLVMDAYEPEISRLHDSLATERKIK
# AEA-DA lipid probe targets in Neuro2a cells (Mus musculus, UniProt Q6PA06), sequence (Q6PA06 whole entry): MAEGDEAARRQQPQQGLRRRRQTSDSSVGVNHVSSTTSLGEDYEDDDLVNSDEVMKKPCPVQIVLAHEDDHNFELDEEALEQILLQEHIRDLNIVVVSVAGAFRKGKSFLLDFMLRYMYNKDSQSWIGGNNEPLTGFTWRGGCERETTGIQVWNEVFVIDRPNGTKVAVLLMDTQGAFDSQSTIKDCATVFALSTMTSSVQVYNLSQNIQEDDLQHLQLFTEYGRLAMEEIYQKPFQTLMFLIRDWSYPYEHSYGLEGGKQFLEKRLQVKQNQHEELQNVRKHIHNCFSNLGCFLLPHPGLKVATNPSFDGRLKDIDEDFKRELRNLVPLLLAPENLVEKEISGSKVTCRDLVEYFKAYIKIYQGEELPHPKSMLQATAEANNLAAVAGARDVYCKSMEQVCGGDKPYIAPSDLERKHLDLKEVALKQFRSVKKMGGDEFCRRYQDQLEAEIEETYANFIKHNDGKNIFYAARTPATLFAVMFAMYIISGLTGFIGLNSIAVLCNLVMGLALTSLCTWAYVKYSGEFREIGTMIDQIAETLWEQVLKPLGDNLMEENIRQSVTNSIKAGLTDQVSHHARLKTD
# AEA-DA lipid probe targets in Neuro2a cells (Mus musculus, UniProt Q8VDD5), sequence (Q8VDD5 whole entry): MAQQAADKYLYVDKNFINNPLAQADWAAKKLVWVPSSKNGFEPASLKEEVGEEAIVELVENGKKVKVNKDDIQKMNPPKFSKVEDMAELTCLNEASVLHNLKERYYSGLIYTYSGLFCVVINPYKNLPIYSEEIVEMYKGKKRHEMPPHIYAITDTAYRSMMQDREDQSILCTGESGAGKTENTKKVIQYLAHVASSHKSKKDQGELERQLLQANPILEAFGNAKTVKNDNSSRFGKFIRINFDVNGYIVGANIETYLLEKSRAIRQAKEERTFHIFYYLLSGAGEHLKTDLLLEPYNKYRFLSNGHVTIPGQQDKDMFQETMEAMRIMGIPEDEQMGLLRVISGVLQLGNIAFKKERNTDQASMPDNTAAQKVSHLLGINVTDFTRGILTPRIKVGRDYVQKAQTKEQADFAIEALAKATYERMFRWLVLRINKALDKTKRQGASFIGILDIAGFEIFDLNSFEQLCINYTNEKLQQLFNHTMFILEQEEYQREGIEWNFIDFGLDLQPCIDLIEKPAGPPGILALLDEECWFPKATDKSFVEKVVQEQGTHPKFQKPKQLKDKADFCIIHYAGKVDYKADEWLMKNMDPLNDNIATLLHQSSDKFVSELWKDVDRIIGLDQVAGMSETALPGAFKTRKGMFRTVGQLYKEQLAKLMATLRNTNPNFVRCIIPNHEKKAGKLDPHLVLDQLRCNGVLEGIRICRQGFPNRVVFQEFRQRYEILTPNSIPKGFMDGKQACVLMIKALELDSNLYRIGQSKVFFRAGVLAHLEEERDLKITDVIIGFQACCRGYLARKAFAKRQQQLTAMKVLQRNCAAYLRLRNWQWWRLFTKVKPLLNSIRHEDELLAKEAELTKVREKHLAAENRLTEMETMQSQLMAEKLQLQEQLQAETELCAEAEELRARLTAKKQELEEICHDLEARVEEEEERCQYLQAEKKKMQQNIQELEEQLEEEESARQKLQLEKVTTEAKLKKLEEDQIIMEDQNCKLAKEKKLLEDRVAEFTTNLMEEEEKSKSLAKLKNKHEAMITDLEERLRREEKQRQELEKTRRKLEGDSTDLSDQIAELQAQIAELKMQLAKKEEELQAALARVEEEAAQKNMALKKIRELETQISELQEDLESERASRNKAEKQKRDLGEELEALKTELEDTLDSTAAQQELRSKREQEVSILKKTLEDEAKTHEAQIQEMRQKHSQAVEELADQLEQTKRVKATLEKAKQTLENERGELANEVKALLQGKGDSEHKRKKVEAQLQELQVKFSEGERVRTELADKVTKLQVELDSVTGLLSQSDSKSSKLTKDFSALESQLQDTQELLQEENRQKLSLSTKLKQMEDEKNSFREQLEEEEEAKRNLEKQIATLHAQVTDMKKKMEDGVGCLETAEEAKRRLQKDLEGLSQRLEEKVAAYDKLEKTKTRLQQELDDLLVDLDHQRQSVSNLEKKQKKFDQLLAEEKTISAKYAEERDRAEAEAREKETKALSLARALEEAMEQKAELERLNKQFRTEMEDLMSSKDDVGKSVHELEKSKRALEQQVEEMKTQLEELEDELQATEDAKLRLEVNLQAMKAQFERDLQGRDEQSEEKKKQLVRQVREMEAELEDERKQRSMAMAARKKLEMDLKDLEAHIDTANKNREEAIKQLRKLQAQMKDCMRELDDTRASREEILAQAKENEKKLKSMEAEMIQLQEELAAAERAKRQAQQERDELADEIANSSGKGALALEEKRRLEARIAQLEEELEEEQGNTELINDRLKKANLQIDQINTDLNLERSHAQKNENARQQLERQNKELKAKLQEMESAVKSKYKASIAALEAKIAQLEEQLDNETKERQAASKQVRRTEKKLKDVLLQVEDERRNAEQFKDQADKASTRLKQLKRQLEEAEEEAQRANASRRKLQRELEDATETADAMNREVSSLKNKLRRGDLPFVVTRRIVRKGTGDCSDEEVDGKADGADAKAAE
# AEA-DA lipid probe targets in Neuro2a cells (Mus musculus, UniProt Q9Z2I0), sequence (Q9Z2I0 115-738): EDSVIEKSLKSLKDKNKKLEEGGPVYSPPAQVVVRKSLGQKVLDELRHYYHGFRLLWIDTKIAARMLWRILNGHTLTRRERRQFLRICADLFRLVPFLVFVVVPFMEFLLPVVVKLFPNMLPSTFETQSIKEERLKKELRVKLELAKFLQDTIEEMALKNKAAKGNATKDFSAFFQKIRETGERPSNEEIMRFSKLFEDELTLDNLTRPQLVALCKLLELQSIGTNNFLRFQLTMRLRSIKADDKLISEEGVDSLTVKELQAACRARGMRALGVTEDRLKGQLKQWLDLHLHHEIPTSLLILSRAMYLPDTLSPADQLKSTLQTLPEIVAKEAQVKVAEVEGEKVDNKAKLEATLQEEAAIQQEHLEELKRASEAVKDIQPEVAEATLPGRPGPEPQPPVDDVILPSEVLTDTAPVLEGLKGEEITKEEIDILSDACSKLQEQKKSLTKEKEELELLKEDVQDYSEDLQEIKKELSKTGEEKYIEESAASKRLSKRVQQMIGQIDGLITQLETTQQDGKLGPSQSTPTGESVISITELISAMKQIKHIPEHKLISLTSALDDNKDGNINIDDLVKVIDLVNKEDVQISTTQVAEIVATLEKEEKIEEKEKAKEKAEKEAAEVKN
compound,measurement,setting,value
"CCCCC/C=C\C/C=C\C/C=C\C/C=C\CCCC(=O)NCCO [AEA, anandamide, reference compound]",SILAC ratio Spcs2,[1]; competitor 200 μM,1.7
same,"SILAC ratio, Atl2",[2]; competitor 200 μM,2.0
same,"SILAC ratio, PSAP (P07602)",[3]; competitor 200 μM,1.4
same,SILAC ratio Psap,[3]; competitor 200 μM,1.4
same,"SILAC ratio, Sec22b",[4]; competitor 200 μM,1.4
same,SILAC ratio Myh9,[5]; competitor 200 μM,1.1
same,SILAC ratio Letm1,[6]; competitor 200 μM,0.6
same,SILAC ratio Gba,[7]; competitor 200 μM,1.5
same,"SILAC ratio, Gstm2",[8]; competitor 200 μM,2.7
"O=C(/C=C/c1cccnc1)NCCCCC1CCN(C(=O)c2ccccc2)CC1 [FK-866, reference compound]",SILAC ratio Spcs2,[1]; competitor 25 μM,1.3
same,"SILAC ratio, Atl2",[2]; competitor 25 μM,1.1
same,"SILAC ratio, PSAP (P07602)",[3]; competitor 25 μM,1.0
same,SILAC ratio Psap,[3]; competitor 25 μM,1.0
same,"SILAC ratio, Sec22b",[4]; competitor 25 μM,1.2
same,SILAC ratio Myh9,[5]; competitor 25 μM,1.2
same,SILAC ratio Letm1,[6]; competitor 25 μM,1.5
same,SILAC ratio Gba,[7]; competitor 25 μM,1.0
same,"SILAC ratio, Mboat7",[9]; competitor 25 μM,1.1
same,"SILAC ratio, Gstm2",[8]; competitor 25 μM,1.5
"CN1CCN(C(=O)c2c(-c3ccccc3)c3cc([N+](=O)[O-])ccc3n2C)CC1 [KML110, (1-Methyl-5-nitro-3-phenyl-1H-indol-2-yl)(4-methylpiperazin-1-yl)methanone]",SILAC ratio Spcs2,[1]; competitor 25 μM,1.6
same,"SILAC ratio, Atl2",[2]; competitor 25 μM,1.3
same,SILAC ratio Psap,[3]; competitor 25 μM,1.3
same,"SILAC ratio, Sec22b",[4]; competitor 25 μM,1.4
same,SILAC ratio Myh9,[5]; competitor 25 μM,1.7
same,SILAC ratio Letm1,[6]; competitor 25 μM,1.1
same,SILAC ratio Gba,[7]; competitor 25 μM,2.4
same,"SILAC ratio, Mboat7",[9]; competitor 25 μM,1.7
"CN1CCN(C(=O)c2[nH]c3ccc([N+](=O)[O-])cc3c2-c2ccccc2)CC1 [MJN228, (4-Methylpiperazin-1-yl)(5-nitro-3-phenyl-1H-indol-2-yl)methanone]",SILAC ratio Spcs2,[1]; competitor 10 μM,1.2
same,SILAC ratio Spcs2,[1]; competitor 25 μM,1.4
same,SILAC ratio Spcs2,[1]; competitor 50 μM,1.5
same,SILAC ratio Spcs2,[1]; competitor 100 μM,1.8
same,"SILAC ratio, Atl2",[2]; competitor 10 μM,1.1
same,"SILAC ratio, Atl2",[2]; competitor 25 μM,1.4
same,"SILAC ratio, Atl2",[2]; competitor 50 μM,1.6
same,"SILAC ratio, PSAP (P07602)",[3]; competitor 25 μM,1.4
same,SILAC ratio Psap,[3]; competitor 10 μM,1.1
same,SILAC ratio Psap,[3]; competitor 25 μM,1.4
same,SILAC ratio Psap,[3]; competitor 50 μM,1.4
same,SILAC ratio Psap,[3]; competitor 100 μM,1.6
same,"SILAC ratio, Sec22b",[4]; competitor 10 μM,1.5
same,"SILAC ratio, Sec22b",[4]; competitor 25 μM,1.6
same,"SILAC ratio, Sec22b",[4]; competitor 50 μM,2.0
same,"SILAC ratio, Sec22b",[4]; competitor 100 μM,2.0
same,SILAC ratio Myh9,[5]; competitor 10 μM,1.2
same,SILAC ratio Myh9,[5]; competitor 25 μM,1.3
same,SILAC ratio Myh9,[5]; competitor 50 μM,1.2
same,SILAC ratio Myh9,[5]; competitor 100 μM,1.6
same,SILAC ratio Letm1,[6]; competitor 10 μM,1.3
same,SILAC ratio Letm1,[6]; competitor 25 μM,1.5
same,SILAC ratio Letm1,[6]; competitor 50 μM,1.2
same,SILAC ratio Letm1,[6]; competitor 100 μM,1.1
same,SILAC ratio Gba,[7]; competitor 10 μM,2.2
same,"SILAC ratio, Mboat7",[9]; competitor 10 μM,1.2
same,"SILAC ratio, Mboat7",[9]; competitor 25 μM,1.6
same,"SILAC ratio, Mboat7",[9]; competitor 50 μM,1.9
same,"SILAC ratio, Mboat7",[9]; competitor 100 μM,2.3
same,"SILAC ratio, Gstm2",[8]; competitor 10 μM,1.6
same,"SILAC ratio, Gstm2",[8]; competitor 25 μM,1.6
same,"SILAC ratio, Gstm2",[8]; competitor 100 μM,2.2
"C=CCN(C)CCCCCCOc1ccc(C(=O)c2ccc(Br)cc2)c(F)c1 [Ro 48-8071, reference compound]",SILAC ratio Spcs2,[1]; competitor 25 μM,1.2
same,"SILAC ratio, Atl2",[2]; competitor 25 μM,1.2
same,"SILAC ratio, PSAP (P07602)",[3]; competitor 25 μM,1.0
same,SILAC ratio Psap,[3]; competitor 25 μM,1.0
same,"SILAC ratio, Sec22b",[4]; competitor 25 μM,1.1
same,SILAC ratio Myh9,[5]; competitor 25 μM,1.0
same,SILAC ratio Letm1,[6]; competitor 25 μM,1.3
same,SILAC ratio Gba,[7]; competitor 25 μM,0.7
same,"SILAC ratio, Mboat7",[9]; competitor 25 μM,1.1
same,"SILAC ratio, Gstm2",[8]; competitor 25 μM,1.3
